Laboratory results taken from PubChem BioAssay (NCI).
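Step 1: Grow cells in 96-well plates. Step 2: Expose to compound for 48 hours at 5 concentrations. Step 3: Interpolate endpoints linearly; if unreached, use highest concentration. At the TGI there is no net growth.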

Experiments:
Experiment in all cases: inhibition of tumour cell growth, NCI panel, 48 h
HCT-15 colon = tested on: HCT-15 colon
UACC-62 melanoma = tested on: UACC-62 melanoma
K-562 leukemia = tested on: K-562 leukemia
SF-268 CNS = tested on: SF-268 CNS
MDA-N = tested on: MDA-N
SK-MEL-5 melanoma = tested on: SK-MEL-5 melanoma
SK-OV-3 ovarian = tested on: SK-OV-3 ovarian
IGROV1 ovarian = tested on: IGROV1 ovarian
MALME-3M melanoma = tested on: MALME-3M melanoma

Structure (SMILES)	TGI (HCT-15 colon)	TGI (UACC-62 melanoma)	TGI (K-562 leukemia)	TGI (SF-268 CNS)	TGI (MDA-N)	TGI (SK-MEL-5 melanoma)	TGI (SK-OV-3 ovarian)	TGI (IGROV1 ovarian)	TGI (MALME-3M melanoma)
OC1(c2ccc(-c3ccccc3)cc2)c2ccccc2C2=NCCN21 (stereo unspecified)	> 100 µM	53.1 µM	> 100 µM	> 100 µM	> 100 µM	43.6 µM	> 100 µM	–	–
CCCC(CCC(N)=O)(CCC(N)=O)[N+](=O)[O-]	> 100 µM	> 100 µM	> 100 µM	> 100 µM	> 100 µM	> 100 µM	> 100 µM	> 100 µM	> 100 µM
CS(=O)(=O)OCCN(CCOS(C)(=O)=O)c1ccc(C=Nc2cccc(Cl)c2)cc1	10 µM	15.6 µM	> 100 µM	> 100 µM	–	22.6 µM	–	> 87.8 µM	33.2 µM
CCOC(=O)c1c(N=P(c2ccccc2)(c2ccccc2)c2ccccc2)nnc(-c2ccccc2)c1-c1ccccc1	> 100 µM	> 100 µM	> 100 µM	> 100 µM	> 100 µM	> 100 µM	> 100 µM	> 100 µM	> 100 µM
CC1(C)OC2[C@@H](CO[C@@]3([C@@H](O)CCO)OC(C)(C)O[C@@H]23)O1 (stereo partly specified)	> 100 µM	> 100 µM	> 100 µM	> 100 µM	> 100 µM	> 100 µM	–	> 100 µM	–
C/C(=N\N=C(\N)SB(F)F)c1ccc2ccccc2c1	> 100 µM	> 100 µM	> 100 µM	> 100 µM	> 100 µM	> 100 µM	> 100 µM	> 100 µM	> 100 µM
Cn1c2ccccc2c2c3c(c4c5ccccc5n(C)c4c21)C(=O)NC3=O	> 100 µM	> 89.6 µM	> 100 µM	> 100 µM	–	> 100 µM	> 100 µM	> 71.8 µM	> 100 µM
O=C(O)Cc1ccc(Nc2nc3cc(C(F)(F)F)ccc3nc2C(=O)O)cc1	> 100 µM	> 100 µM	–	> 100 µM	> 100 µM	> 100 µM	> 100 µM	> 100 µM	> 100 µM
COC(CN(C(C)=O)C1CCC2(SCCS2)c2[nH]c3ccccc3c21)OC (stereo unspecified)	> 100 µM	–	> 100 µM	> 100 µM	> 100 µM	> 100 µM	–	> 100 µM	> 100 µM
COc1ccc2nc(-c3ccccc3)cc(OCC(=O)O)c2c1	> 100 µM	> 100 µM	> 100 µM	> 100 µM	> 100 µM	> 100 µM	> 100 µM	> 100 µM	> 100 µM
CN1C/C(=C\c2cccs2)C(O)/C(=C/c2cccs2)C1 (stereo unspecified)	> 100 µM	> 100 µM	> 100 µM	> 100 µM	> 100 µM	> 100 µM	> 100 µM	> 100 µM	> 100 µM
c1ccc(C(NCC2CCO2)(c2ccccc2)c2ccccc2)cc1 (stereo unspecified)	33.7 µM	32 µM	> 100 µM	–	54.5 µM	63.9 µM	34.2 µM	32.7 µM	35.1 µM
O=C(OC1C2OC(=O)c3cc(O)c(O)c(O)c3Oc3cc4c(c(O)c3O)-c3c(cc(O)c(O)c3O)C(=O)OCC3OC(O)C(OC(=O)c5cc(O)c(O)c(O)c5Oc5cc6c(c(O)c5O)-c5c(cc(O)c(O)c5O)C(=O)OC1C(COC6=O)OC2O)C(OC(=O)c1cc(O)c(O)c(O)c1)C3OC4=O)c1cc(O)c(O)c(O)c1 (stereo unspecified)	–	68.5 µM	42.8 µM	> 100 µM	46.6 µM	> 100 µM	44.4 µM	> 100 µM	> 100 µM
CCN1CCC(O)(c2ccc(Oc3ccc(F)cc3)cc2)C(C(=O)c2ccc(Oc3ccc(F)cc3)cc2)C1 (stereo unspecified)	23.7 µM	28 µM	> 100 µM	34.9 µM	30.6 µM	–	32.2 µM	24.1 µM	31 µM
O=C1/C(=C\c2cccc(Oc3ccccc3)c2)SC(c2ccccc2)N1c1ccccc1 (stereo unspecified)	> 100 µM	> 100 µM	> 100 µM	> 100 µM	97.9 µM	> 100 µM	> 100 µM	–	> 100 µM
CSc1ccc(-c2cc(-c3nc4ccccc4[nH]3)no2)cc1	62.9 µM	39.1 µM	84.4 µM	> 100 µM	> 100 µM	33.4 µM	> 100 µM	> 100 µM	> 100 µM
CN(C)CCNC(=O)c1ccc(NCCCN(C)CCCNc2ccc(C(=O)NCCN(C)C)c3[nH]c4ccccc4c(=O)c23)c2c(=O)c3ccccc3[nH]c12	4.52 µM	0.353 µM	–	0.271 µM	–	1.5 µM	0.427 µM	2.07 µM	0.302 µM
CCOC(=O)C1=C(O)C2C3CC4C2C(O)=C(C(=O)OCC)C2C1C3C42 (stereo unspecified)	> 100 µM	> 100 µM	> 100 µM	> 100 µM	> 100 µM	> 100 µM	> 100 µM	> 100 µM	> 100 µM
COc1c(/C=C/C(C)(C)O)cc(C2CC(=O)c3c(O)cc(O)cc3O2)cc1CC=C(C)C (stereo unspecified)	17.5 µM	13.3 µM	35.7 µM	19.2 µM	20.5 µM	15.6 µM	17.6 µM	–	18 µM
COC(=O)c1ccc(/C=C2\Oc3ccccc3C2=O)cc1	> 100 µM	> 100 µM	–	> 100 µM	> 100 µM	> 100 µM	> 100 µM	> 100 µM	–
O=C(/C=C/c1ccc(-c2ccccc2)cc1)NCc1ccc(C(=O)NCc2ccccc2)cc1	> 100 µM	> 100 µM	–	> 100 µM	> 100 µM	> 100 µM	> 100 µM	> 100 µM	> 100 µM
O=C(O)C(O)C(O)C(=O)O (stereo unspecified)	> 100 µM	> 100 µM	> 100 µM	> 100 µM	> 100 µM	> 100 µM	> 100 µM	> 100 µM	> 100 µM
O=C(O)CCS/C(=C\C(SCCC(=O)O)c1ccc(Cl)cc1)c1ccc(Cl)cc1 (stereo unspecified)	> 100 µM	38.4 µM	> 100 µM	> 100 µM	> 100 µM	> 100 µM	> 100 µM	> 100 µM	> 100 µM
CCOC(=O)c1nnsc1N/N=C\c1ccc([N+](=O)[O-])cc1	> 100 µM	> 100 µM	> 100 µM	> 100 µM	> 100 µM	> 100 µM	> 100 µM	> 100 µM	> 100 µM
